Experimental findings from patent US8440637B2, “Combination treatment for the treatment of hepatitis C virus infection” (priority 2007, dated 2013) are described below.

Strand notation (5' to 3'): a small letter for the sugar, then the base; units joined by * are phosphorothioate-linked, units joined directly phosphodiester-linked; [ ] holds rarer units or linkages, { } end groups; capitals alone tell only the bases. l = locked nucleic acid (LNA); [5mC] = 5-methylcytosine; d = 2'-deoxy (DNA)

The test system of series [1] is ApoB-100 mRNA. Kind of series: Serum total cholesterol after dosing apoB antisense oligonucleotides. It counts as in vivo, mouse. The method, then:
Total cholesterol level is measured in plasma using a colometric assay Cholesterol CP from ABX Pentra. The cholesterol is measured following enzymatic hydrolysis and oxidation. 21.5 μL water was added to 1.5 μL plasma. 250 μL reagent is added and within 5 min the cholesterol content is measured at a wavelength of 540 nm. Measurements on each animal was made in duplicates. The sensitivity and linearity was tested with 2 fold diluted control compound (ABX Pentra N control). The relative Cholesterol level was determined by subtraction of the background and presented relative to the cholesterol levels in plasma of saline treated mice.
(§1) In this study 5 mg/kg/dose were dosed on 3 consecutive days (one dose/day i.v.) and animals were sacrificed 24 hours after last dosing. At sacrifice, liver and retro orbital sinus blood was sampled. Serum was prepared from blood for analysis of cholesterol. RNA was isolated from the liver and the expression of ApoB-100 mRNA was measured.
(§2) In this study three different concentrations (10, 15 and 25 mg/kg) of SEQ ID NO 17 (Table 1) and SEQ ID NO 34 (Table 1) were examined for duration of action on ApoB-100 mRNA expression and serum cholesterol level. SEQ ID NO 17 and SEQ ID NO 34 were given as a single dose of 10, 15 or 25 mg/kg to C57BL/6 female mice. Mice were sacrificed at different time points (1, 3, 5 and 8 days) after dosing; liver and serum were examined for ApoB-100 mRNA expression, liver oligonucleotide concentration and cholesterol and ALT, respectively.
Blood serum used to measure cholesterol was sampled at sacrifice. Twenty-four hours after dosing SEQ ID NO 17 serum total cholesterol was reduced 25-40%, and dosing SEQ ID NO 34 gave 40-55% reduction in total cholesterol. At day 3, the total cholesterol level was further reduced: SEQ ID NO 17 gave 70-90% reduction in a dose dependent manner after doing 10, 15 or 25 mg/kg. SEQ ID NO 34 reduced total cholesterol with 90-95% relative to the saline control group. At day 5-8 the total cholesterol level increased in all groups except the group dosed SEQ ID NO 17 at 10 mg/kg. (FIG. 4.).
Blood serum was sampled at sacrifice and used to measure cholesterol. The serum total cholesterol level reflected the mRNA expression of ApoB-100; dose dependent reduction with best effect at 5 days after dosing SEQ ID NO 17 at 1 and 2.5 mg/kg and similar effect at days 3, 5 and 8 after dosing 5 mg/kg (50% reduction). Dose dependent effect was also obtained after dosing SEQ ID NO 34 with best effect at day 3 after dosing 5 mg/kg (70% reduction) with following increase in cholesterol level (60% reduction at day 8 and 45% at day 16).
At sacrifice blood for serum was sampled and used to measure cholesterol.

For series [2], the system named is ApoB-100 mRNA. Kind of series: ApoB-100 mRNA expression in liver by qPCR after dosing apoB antisense oligonucleotides. In kind it is in vivo, mouse. The method, then:
as §1, §2
Liver sampled at sacrifice was analysed for ApoB-100 mRNA expression by qPCR. Data was normalized to Gapdh and presented relative to the data obtained by dosing saline. One dose of 10, 15 or 25 mg/kg of SEQ ID NO 17 or SEQ ID NO 34 was very effective to down regulate ApoB-100 mRNA in liver (FIG. 3).
A single dose of SEQ ID NO 17 (Table 1) and SEQ ID NO 34 (Table 1) at different concentrations was administered to C57BL/6J mice to find ED50 values for cholesterol. Duration of action was also included in this study, because we previously have seen that maximum effect of a single dose not always was achieved 24 hours after dosing. […] In this study we therefore have chosen lower concentrations (1, 2.5 and 5 mg/kg).
Liver sampled at sacrifice was analysed for ApoB-100 mRNA expression by qPCR. Data was normalized to Gapdh and presented relative to the data obtained by dosing saline. One dose of 10, 15 or 25 mg/kg of SEQ ID NO 17 or SEQ ID NO 34 was very effective to down regulate ApoB-100 mRNA in liver (FIG. 5).
The effect on ApoB-100 mRNA was examined at different days after dosing 1.0 or 5.0 mg/kg (one dose day 0) of the three LNA antisense oligonucleotides 12-mer SEQ ID NO 34 (Table 1), SEQ ID NO 26 (Table 1) 13-mer and 14-mer SEQ ID NO 17 (Table 1) all targeting ApoB mRNA.
Liver sampled at sacrifice was analysed for ApoB-100 mRNA expression by qPCR. Data was normalized to Gapdh and presented relative to the data obtained by dosing saline. Dosing 3* 1 or 5 mg/kg of SEQ ID NO 34, SEQ ID NO 17 or SEQ ID NO 26 was very effective to down regulate ApoB-100 mRNA in liver (FIG. 7). […] SEQ ID NO 17 dosed 3* 1 mg/kg/dose or 5 mg/kg/dose down regulated target mRNA with 50% and 70% respectively.

Another series has as its system miR-122a. Kind of series: Melting temperature (Tm) of LNA anti-miR/miR-122a RNA duplex. It counts as physicochemical, human. To be noted: Table 2; towards synthetic miR-122a RNA oligonucleotide with phosphorothioate linkages; PS backbone. How it is done: The melting temperatures were assessed towards the mature miR-122a sequence, using a synthetic miR-122a RNA oligonucleotide with phosphorothioate linkaged.
The LNA anti-miR/miR-122a oligo duplex was diluted to 3 μM in 500 μl RNase free H2O, which was then mixed with 500 μl 2× dimerization buffer (final oligo/duplex conc. 1.5 μM, 2× Tm buffer: 200 mM NaCl, 0.2 mM EDTA, 20 mM NaP, pH 7.0, DEPC treated to remove RNases). The mix was first heated to 95 degrees for 3 minutes, then allowed to cool at room temperature (RT) for 30 minutes.
Following RT incubation Tm was measured on Lambda 40 UV/VIS Spectrophotometer with peltier temperature progammer PTP6 using PE Templab software (Perkin Elmer). The temperature was ramped up from 20° C. to 95° C. and then down again to 20° C., continuously recording absorption at 260 nm. First derivative and local maximums of both the melting and annealing was used to assess melting/annealing point (Tm), both should give similar/same Tm values. For the first derivative 91 points was used to calculate the slope.

[3] abbreviates: liver, 3 doses of 5 mg/kg/dose i.v. on consecutive days, 24 hours after last dosing.

As to “5′-AsGs^MeCsaststsgsgstsastsTs^MeCsA-3′ (antisense lA*lG*l[5mC]*dA*dT*dT*dG*dG*dT*dA*dT*lT*l[5mC]*lA) [SEQ ID NO: 17]”, the entries for the “reduction of serum cholesterol” value in the series on ApoB-100 mRNA [1] (dosing 3*1 mg/kg) and with ApoB-100 mRNA [1] (dosing 3*5 mg/kg/dose) were 40% and 70%, respectively. Also, the “reduction of serum total cholesterol” value was 50% in the series on ApoB-100 mRNA [1] (single dose 5 mg/kg, days 3, 5 and 8); 25-40% in the series on ApoB-100 mRNA [1] (single dose of 10, 15 or 25 mg/kg, 24 hours after dosing); 70-90% in the series on ApoB-100 mRNA [1] (single dose of 10, 15 or 25 mg/kg, day 3). Besides, in the series with ApoB-100 mRNA [2] (10, 15 or 25 mg/kg SEQ ID NO 34, 25 mg/kg SEQ ID NO 17), the “ApoB-100 mRNA down-regulation (in words)” value is recorded as “completely down-regulated”. Moreover, the “down regulation of ApoB-100 mRNA” value with ApoB-100 mRNA [2] (setting [3]) is recorded as “about 75%”; in the series on ApoB-100 mRNA [2] (liver, dosing 3*1 mg/kg i.v.), 50%; in the series on ApoB-100 mRNA [2] (liver, dosing 3*5 mg/kg i.v.), 70%. For the same substance, the “down regulation of ApoB-100 mRNA relative to saline” value in the series with ApoB-100 mRNA [2] (liver, single dose of 10, 15 or 25 mg/kg, C57BL/6 female mice, 24 hours after dosing) is reported as 70-85%. Moreover, the “reduction of ApoB-100 mRNA expression” value in the series with ApoB-100 mRNA [2] (single dose 5 mg/kg, day 8) is 75%. In the series on ApoB-100 mRNA [2] (single dose of 1, 2.5 or 5 mg/kg, C57BL/6J mice), the “duration of dose dependent down regulation of ApoB-100 mRNA” value turned out to be 5 days.
As to “5′-AsGs^MeCsaststsgsgstsastsTs^MeCsAsg-3′ (antisense lA*lG*l[5mC]*dA*dT*dT*dG*dG*dT*dA*dT*lT*l[5mC]*lA*dG) [SEQ ID NO: 16]”, the “reduction of serum total cholesterol” value in the series on ApoB-100 mRNA [1] (3 doses of 5 mg/kg/dose i.v., at sacrifice, day 3) was “about 18%”. In the series on ApoB-100 mRNA [2] (setting [3]), the “down regulation of ApoB-100 mRNA” value was 25-30%.
On to “5′-CCAttgtcacacTCCa-3′ (antisense l[5mC]*l[5mC]*lA*dT*dT*dG*dT*dC*dA*dC*dA*dC*lT*l[5mC]*l[5mC]*dA) [SEQ ID NO: 62]”, for which the “Tm (° C.)” value in the series with miR-122a is 69 °C.
